Measurements taken from patent publication US20260243781A1, “METHOD” (Philip Morris Products S.A., priority 2023, published 2026).

Key:
NHBE cells [1] = test: Modified GSH/GSSG-Glo assay in NHBE cells; format: cell-based, human
Experimental: • 1. A tissues sample is treated basolaterally in medium containing 25 μM ROS-GloTM H2O2 substrate for the desired exposure duration. • Treatment duration is not longer than 6 hours due to instability of the substrate. • 2. After treatment, 75 μL of the medium is collected for the ROS endpoint (see example 3), and the remaining cell or tissue sample transferred to new 24-well plate for the GSH/GSSG endpoint. ROS samples are stored at 4° C. for a maximum total of 6 hours taking into account the treatment duration, while GSH/GSSG samples must be processed immediately. This Specific Example Based on GSH/GSSG-GloTM Assay Kit Catalogue #[…] and Described in Technical Manual #TM344 from Promega • (A) Starting with the cell or tissue sample from point 2 of Example 1, the cell supernatant is removed. • (B) 100 μL of cold Passive lysis buffer is 1× diluted in water is added per well, to tissue/cell samples and shaken for 5 min at 300 rpm on ice. • (C) 100 μL of lysate is placed into 2 wells containing 50 μL each. • (D) In one well 1 μL of Luciferin-NT is added for quantification of total GSH. • (E) In the other well, 1 μL of Luciferin-NT and 0.5 μL of N-Ethylmaleimide (NEM) at 25 mM is added for quantification of oxidized GSSG. • (F) Both wells are incubated for 5 min shaking at 300 rpm at room temperature. • (G) 50 μL of Luciferin Generation Reagent is added per well, and both wells shaken for 1 min. • (H) Both wells are incubated for 29 min standing at room temperature. • (I) 100 μL of Luciferin detection reagent is added to both wells and they are shaken for 1 min. • (J) Both wells are incubated for 14 min. • (K) Both wells are transferred to an assay plate containing a calibration curve (suitably prepared as in the supplier's protocol). • (L) The luminescence of each well is measured with FLUOstar® Omega “GSHG assay” In this example oxidative stress was simulated by adding menadione sodium bisulfite to four samples. Four of the samples had 10 μM, 30 μM, 100 μM or 300 μM of menadione sodium bisulfite respectively added to the medium to simulate increasing levels of oxidative stress. The fifth sample was used as the vehicle control wherein on the medium and 0.3% water were added. The assays were performed in triplicate on NHBE cells. In the top row of FIG. 9, the same experiments of the invention as per Example 6 (shown top row of FIG. 8) were carried out. In addition, the ROS endpoint analysis method of the invention (as per Example 5 above) was carried out on the same samples at the 1 hour and 2 hour time points (shown in FIG. 9, bottom row). A star (*) indicates significance P<0.05 paired t-test. Two stars (**) indicates significance P<0.01 paired t-test. The cells used where an NHBE cell line exposed to water-soluble menadione sodium bisulfite.

NHBE cells [2] = test: ROS-Glo H2O2 assay (non-lytic) in NHBE cells; format: cell-based, human
Experimental: • 1. A tissues sample is treated basolaterally in medium containing 25 μM ROS-GloTM H2O2 substrate for the desired exposure duration. • Treatment duration is not longer than 6 hours due to instability of the substrate. • 2. After treatment, 75 μL of the medium is collected for the ROS endpoint (see example 3), and the remaining cell or tissue sample transferred to new 24-well plate for the GSH/GSSG endpoint. ROS samples are stored at 4° C. for a maximum total of 6 hours taking into account the treatment duration, while GSH/GSSG samples must be processed immediately. This Specific Example is Based on Non-Lytic Variant of ROS-GloTM H2O2 Assay Kit Catalogue #[…] and Described in Technical Manual TM391 from Promega. • (a) 75 μL of sample medium collected in Example 1, step 2, and 75 μL of compound interference controls are added to an assay plate. • (b) 10 wells, 100 μL per well are added to the assay plate for standard curve calibration. • (c) 75 μL of freshly prepared ROS-Glo Detection SolutionTM is added to all samples and compound interference control wells. D-cysteine is added on top if not present in reagents, preferably 0.01 to 20 mM, preferably 0.1 to 10 mM. • (d) 100 μL of ROS-Glo Detection SolutionTM is added to standard curve wells. • (e) The assay plate is shaken for 1 minute at room temperature on a plate shaker set at 300 rpm. • (f) The plate is incubated for 20 minutes standing at room temperature. • (g) Luminescence is measured with FLUOstar® Omega using the pre-defined “ROS-GloTM H2O2 assay”. In this example oxidative stress was simulated by adding menadione sodium bisulfite to four samples. Four of the samples had 10 μM, 30 μM, 100 μM or 300 μM of menadione sodium bisulfite respectively added to the medium to simulate increasing levels of oxidative stress. The fifth sample was used as the vehicle control wherein on the medium and 0.3% water were added. The assays were performed in triplicate on NHBE cells. In the top row of FIG. 9, the same experiments of the invention as per Example 6 (shown top row of FIG. 8) were carried out. […]

3D bronchial cultures [3] = test: Modified GSH/GSSG-Glo assay in 3D bronchial cultures; format: cell-based, human
Experimental: (§1) • 1. A tissues sample is treated basolaterally in medium containing 25 μM ROS-Glo™ H2O2 substrate for the desired exposure duration. • Treatment duration is not longer than 6 hours due to instability of the substrate. • 2. After treatment, 75 μL of the medium is collected for the ROS endpoint (see example 3), and the remaining cell or tissue sample transferred to new 24-well plate for the GSH/GSSG endpoint. ROS samples are stored at 4° C. for a maximum total of 6 hours taking into account the treatment duration, while GSH/GSSG samples must be processed immediately.
This Specific Example Based on GSH/GSSG-Glo™ Assay Kit Catalogue #V6611 and V6612 and Described in Technical Manual #TM344 from Promega • (A) Starting with the cell or tissue sample from point 2 of Example 1, the cell supernatant is removed. • (B) 100 μL of cold Passive lysis buffer is 1× diluted in water is added per well, to tissue/cell samples and shaken for 5 min at 300 rpm on ice. • (C) 100 μL of lysate is placed into 2 wells containing 50 μL each. • (D) In one well 1 μL of Luciferin-NT is added for quantification of total GSH. • (E) In the other well, 1 μL of Luciferin-NT and 0.5 μL of N-Ethylmaleimide (NEM) at 25 mM is added for quantification of oxidized GSSG. • (F) Both wells are incubated for 5 min shaking at 300 rpm at room temperature. • (G) 50 μL of Luciferin Generation Reagent is added per well, and both wells shaken for 1 min. • (H) Both wells are incubated for 29 min standing at room temperature. • (I) 100 μL of Luciferin detection reagent is added to both wells and they are shaken for 1 min. • (J) Both wells are incubated for 14 min. • (K) Both wells are transferred to an assay plate containing a calibration curve (suitably prepared as in the supplier's protocol). • (L) The luminescence of each well is measured with FLUOstar® Omega “GSHG assay”
(§2) A 3D bronchial culture can be provided by isolating bronchial cells or using commercially available primary cells, culturing them and seeding them on a 3D framework. Suitable cultures include MucilAir™. MucilAir™ is an in vitro cell model of the human airway eplithelium cultures at the air liquid interface and available from Epithelix (for example, here https://www.epithelix.com/products/mucilair).
(§3) FIG. 11 is a further schematic showing how GSH/GSSG and ROS assays (as detailed in Example 4 and Example 5 above) can be adapted to 3D bronchial cultures. In this experiment, three 3D cultures were used. […] The GSH/GSSG-Glo assays were performed on samples from the cell culture within the culture insert and the ROS-Glo assays were performed on the basolateral medium. This was performed in triplicate.

3D bronchial cultures [4] = test: ROS-Glo H2O2 assay on basolateral medium of 3D bronchial cultures; format: cell-based, human
Experimental: as §1
(§4) This Specific Example is Based on Non-Lytic Variant of ROS-Glo™ H2O2 Assay Kit Catalogue #G8820 and G8821 and Described in Technical Manual TM391 from Promega. • (a) 75 μL of sample medium collected in Example 1, step 2, and 75 μL of compound interference controls are added to an assay plate. • (b) 10 wells, 100 μL per well are added to the assay plate for standard curve calibration. • (c) 75 μL of freshly prepared ROS-Glo Detection Solution™ is added to all samples and compound interference control wells.
as §2, §3

NHBE cells [5] = test: Cell viability / cytotoxicity (ATP levels) in NHBE cells; format: cell-based, human
3D bronchial cultures [6] = test: Cell viability in 3D bronchial cultures; format: cell-based, human; details: lipid-soluble menadione
A549 lung cell line [7] = test: GSH/GSSG assay in A549 lung cell line; format: cell-based, human; details: A549, dose-dependent
Experimental: This Specific Example Based on GSH/GSSG-Glo™ Assay Kit Catalogue #V6611 and V6612 and Described in Technical Manual #TM344 from Promega • (A) Starting with the cell or tissue sample from point 2 of Example 1, the cell supernatant is removed. • (B) 100 μL of cold Passive lysis buffer is 1× diluted in water is added per well, to tissue/cell samples and shaken for 5 min at 300 rpm on ice. • (C) 100 μL of lysate is placed into 2 wells containing 50 μL each. • (D) In one well 1 μL of Luciferin-NT is added for quantification of total GSH. • (E) In the other well, 1 μL of Luciferin-NT and 0.5 μL of N-Ethylmaleimide (NEM) at 25 mM is added for quantification of oxidized GSSG. • (F) Both wells are incubated for 5 min shaking at 300 rpm at room temperature. • (G) 50 μL of Luciferin Generation Reagent is added per well, and both wells shaken for 1 min. • (H) Both wells are incubated for 29 min standing at room temperature. • (I) 100 μL of Luciferin detection reagent is added to both wells and they are shaken for 1 min. • (J) Both wells are incubated for 14 min. • (K) Both wells are transferred to an assay plate containing a calibration curve (suitably prepared as in the supplier's protocol). • (L) The luminescence of each well is measured with FLUOstar® Omega “GSHG assay” […]

A549 lung cell line [8] = test: ROS-Glo H2O2 assay in A549 lung cell line; format: cell-based, human; details: A549, dose-dependent
Experimental: as §4
In this experiment, an A549 lung cell line was exposed to lipid-soluble menadione (Vitamin K3) to simulate oxidative stress.

A549 lung cell line [9] = test: Cell viability in A549 lung cell line; format: cell-based, human; details: A549, two highest concentrations
HeLa = details: HeLa, 5,000 cells/well, menadione-treated; cited from earlier work
HepG2 = details: HepG2, 10,000 cells/well, menadione-treated; cited from earlier work
HepaRG ® = details: HepaRG, 50,000 cells/well, menadione-treated; cited from earlier work
A549 = details: A549, 5,000 cells/well, menadione-treated; cited from earlier work
Rat hepatocytes = details: Rat hepatocytes, 50,000 cells/well, menadione-treated; cited from earlier work
[10] = 30 µM, 1 hour and 2 hour time points
[11] = higher dose (300 μM) versus lower dose, 3D bronchial culture
[12] = higher dose (300 μM), 3D bronchial culture
[13] = lower dose (100 μM), 3D bronchial culture
[14] = 3D bronchial cultures, lipid-soluble menadione, dose-dependent

With CC1(S(=O)(=O)[O-])CC(=O)c2ccccc2C1=O.[Na+] (stereo not shown) [Menadione sodium bisulfite, menadione sodium bisulfite] as the molecule, how does the GSH/GSSG (NHBE cells [1]; [10]) read?
Its GSH/GSSG is “no changes in GSH/GSSG”.

What about the ROS (NHBE cells [2]; [10]) of the same molecule?
The ROS was “increased ROS”.

What about the GSSG (3D bronchial cultures [3]; [11]) of the same molecule?
The GSSG was “no further impact”.

And the GSH (3D bronchial cultures [3]; [12])?
Its GSH is “further decreased”.

What about the GSH/GSSG (3D bronchial cultures [3]; [12]) of the same molecule?
Its GSH/GSSG is “further decreased”.

And the GSH/GSSG (3D bronchial cultures [3]; [13])?
The GSH/GSSG was “no effect on GSH/GSSG”.

What about the ROS (3D bronchial cultures [4]; [11]) of the same molecule?
Its ROS is “no further impact”.

What about the ROS (3D bronchial cultures [4]; [13]) of the same molecule?
Its ROS is “significantly increased ROS”.

Which GSH/GSSG (NHBE cells [1]; 100 μM) does the source give for CC1=CC(=O)c2ccccc2C1=O [Menadione] here?
The GSH/GSSG was “decreased GSH/GSSG”.

And the GSH/GSSG (NHBE cells [1]; 300 μM (highest dose))?
The GSH/GSSG was “lowest GSH/GSSG”.

What about the GSH/GSSG reduction (NHBE cells [1]; 300 μM (highest dose)) of the same molecule?
Its GSH/GSSG reduction is 6 fold.

What about the ROS (NHBE cells [2]; 100 μM) of the same molecule?
Its ROS is “increased ROS”.

What about the ROS (NHBE cells [2]; 300 μM (highest dose)) of the same molecule?
The ROS was “highest ROS”.

What about the cell viability (NHBE cells [5]; 300 μM (highest dose)) of the same molecule?
The cell viability was “decreased cell viability”.

And the “oxidative stress and cytotoxicity (as determined by ATP levels) with longer exposure” value (NHBE cells [5]; 2 hour versus 1 hour time point)?
The value was “more oxidative stress and cytotoxicity”.

What about the GSH (3D bronchial cultures [3]; [14]) of the same molecule?
The GSH was “dose-dependent decrease”.

And the GSH/GSSG (3D bronchial cultures [3]; [14])?
Its GSH/GSSG is “dose-dependent decrease”.

What about the GSSG (3D bronchial cultures [3]; [14]) of the same molecule?
The GSSG was “increase”.

What about the ROS (3D bronchial cultures [4]; [14]) of the same molecule?
Its ROS is “increase”.

What about the cell viability (3D bronchial cultures [6]) of the same molecule?
Its cell viability is “no effects on cell viability”.

What about the GSH/GSSG (A549 lung cell line [7]) of the same molecule?
Its GSH/GSSG is “decrease in GSH/GSSG”.

And the ROS (A549 lung cell line [8])?
The ROS was “increase in ROS”.

And the cell viability (A549 lung cell line [9])?
Its cell viability is “effects on cell viability at the two highest concentrations”.

And the “Ratio GSH/GSSG” value (HeLa)?
The value was 2.2.

What about the “Ratio GSH/GSSG” value (HepG2) of the same molecule?
The value was 2.2.

What about the “Ratio GSH/GSSG” value (HepaRG ®) of the same molecule?
Its value is 2.5.

And the “Ratio GSH/GSSG” value (A549)?
Its value is 10.9.

What about the “Ratio GSH/GSSG” value (Rat hepatocytes) of the same molecule?
Its value is 1.1.
